# Where a name gives a salt, the structure may show the parent alone.
# Molecular target: human MCH-1 receptor (Homo sapiens (Human), UniProt Q99705)
# Assay: Binding assay for human melanin-concentrating hormone (MCH1) receptor
# Settings: membranes from CHO-K1 cells expressing human MCH1 receptor; 1.4 nM [3H]-labeled radioligand, 60 min at 25° C., pH 7.4; Ki from Cheng Prusoff equation
# Protocol: Binding Assay for Human Melanin-Concentrating Hormone (MCH1) Receptor
# Evaluation of the affinity of compounds for the human MCH-1 receptor was accomplished using 4-(3,4,5-tritritiumbenzyloxy)-1-(1-(2-(pyrrolidin-1-yl)ethyl)-1H-indazol-5-yl)pyridin-2(1H)-one and membranes prepared from stable CHO-K1 cells expressing the human MCH1 receptor obtained from Euroscreen (Batch 1138). Cell membrane homogenates (8.92 μg protein) were incubated for 60 min at 25° C. with 1.4 nM of the [^3H]-labeled compound in the absence or presence of the test compound in 50 mM Tris-HCl buffer, pH 7.4. Nonspecific binding was determined in the presence of 50 μM 1-(5-(4-cyanophenyl)bicyclo[3.1.0]hexan-2-yl)-3-(4-fluoro-3-(trifluoromethyl)phenyl)-1-(3-(4-methylpiperazin-1-yl)propyl)urea. Following incubation, the samples were filtered rapidly under vacuum through Skatron 11731 filters, pre-soaked in 0.5% polyethylenimine, and washed with ice-cold 50 mM Tris-HCl buffer, pH 7.4, (wash setting 9,9,0) using a Skatron cell harvester. The filters were counted for radioactivity in a liquid scintillation counter (Tri-Carb 2100TR, Packard) using a scintillation cocktail (Ultima Gold MV, Perkin Elmer).
# The results are expressed as a percent inhibition of the control radioligand specific binding. The IC50 value (concentration causing a half-maximal inhibition of control specific binding) and Hill coefficient (nH) were determined by non-linear regression analysis of the competition curve using Hill equation curve fitting. The inhibition constant (Ki) was calculated from the Cheng Prusoff equation: (Ki=IC50/(1+(L/KD)), where L=concentration of radioligand in the assay, and KD=affinity of the radioligand for the receptor.
# Chain of human MCH-1 receptor (Q99705 whole entry): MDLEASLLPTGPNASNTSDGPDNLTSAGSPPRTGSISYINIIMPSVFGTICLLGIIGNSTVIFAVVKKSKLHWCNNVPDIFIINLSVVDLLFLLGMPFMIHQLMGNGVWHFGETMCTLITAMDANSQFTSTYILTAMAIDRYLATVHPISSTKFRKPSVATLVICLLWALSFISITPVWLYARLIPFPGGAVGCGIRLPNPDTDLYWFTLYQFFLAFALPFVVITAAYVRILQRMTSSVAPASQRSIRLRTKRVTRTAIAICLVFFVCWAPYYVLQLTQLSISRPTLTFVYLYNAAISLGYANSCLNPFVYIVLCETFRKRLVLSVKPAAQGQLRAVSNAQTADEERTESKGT
row,SMILES,Ki [µM]
1,"Cc1ccc(-c2ccn(-c3ccc4c5c(n(C)c4c3)CC3CCCN3C5)c(=O)c2)cn1 (stereo not drawn) [Example 13, 1-(10-Methyl-2,3,5,10,11,11a-hexahydro-1H-indolizino[7,6-b]indol-8-yl)-4-(6-methylpyridin-3-yl)pyridin-2(1H)-one Hydrochloride]",0.059
2,"Cc1ccc(-c2ccn(-c3ccc4c5c(n(C)c4c3)CCN3CCCC53)c(=O)c2)cn1 (stereo not drawn) [Example 15, 1-(7-Methyl-2,3,5,6,7,11c-hexahydro-1H-indolizino[7,8-b]indol-9-yl)-4-(6-methylpyridin-3-yl)pyridin-2(1H)-one Hydrochloride]",0.076
3,"Cn1c2c(c3ccc(-n4ccc(OCc5ccc(F)cn5)cc4=O)cc31)C1CCCN1CC2 (stereo not drawn) [Example 19, 4-((5-Fluoropyridin-2-yl)methoxy)-1-(7-methyl-2,3,5,6,7,11c-hexahydro-1H-indolizino[7,8-b]indol-9-yl)pyridin-2(1H)-one Dihydrochloride]",0.011
4,"Cc1ccc(COc2ccn(-c3ccc4c5c(n(C)c4c3)CCN3CCCC53)c(=O)c2)cn1 (stereo not drawn) [Example 20, 1-(7-Methyl-2,3,5,6,7,11c-hexahydro-1H-indolizino[7,8-b]indol-9-yl)-4-((6-methylpyridin-3-yl)methoxy)pyridin-2(1H)-one Dihydrochloride]",0.013
5,"Cc1ccc(COc2ccn(-c3ccc4c5c(n(C)c4c3)CC3CCCCN3C5)c(=O)c2)cn1 (stereo not drawn) [Example 33, 1-(5-Methyl-5,6,6a,7,8,9,10,12-octahydroindolo[2,3-b]quinolizin-3-yl)-4-((6-methylpyridin-3-yl)methoxy)pyridin-2(1H)-one Dihydrochloride]",0.031
6,"Cc1ccc(-c2ccn(-c3ccc4c5c(n(C)c4c3)CC3CCCCN3C5)c(=O)c2)cn1 (stereo not drawn) [Example 35, 1-(5-Methyl-5,6,6a,7,8,9,10,12-octahydroindolo[2,3-b]quinolizin-3-yl)-4-(6-methylpyridin-3-yl)pyridin-2(1H)-one Dihydrochloride]",0.193

# Second part, the molecule after the results:
row,Ki [µM],SMILES
1,0.047,"Cn1c2c(c3ccc(-n4ccc(OCc5ccccc5)cc4=O)cc31)CCN1CCCCCC21 (stereo not drawn) [Example 10, 4-(Benzyloxy)-1-(13-methyl-2,3,4,5,7,8,13,13b-octahydro-1H-pyrido[1,2-a]azepino[10,9-b]indol-10-yl)pyridin-2(1H)-one Hydrochloride]"
2,0.0084,"Cn1c2c(c3ccc(-n4ccc(OCc5ccc(F)cn5)cc4=O)cc31)C1CCCCN1CC2 (stereo not drawn) [Example 21, 4-((5-Fluoropyridin-2-yl)methoxy)-1-(8-methyl-1,2,3,4,6,7,8,12c-octahydroindolo[3,2-a]quinolizin-10-yl)pyridin-2(1H)-one Hydrochloride]"
3,0.019,"Cc1ccc(COc2ccn(-c3ccc4c5c(n(C)c4c3)CCN3CCCCC53)c(=O)c2)cn1 (stereo not drawn) [Example 23, 1-(8-Methyl-1,2,3,4,6,7,8,12c-octahydroindolo[3,2-a]quinolizin-10-yl)-4-((6-methylpyridin-3-yl)methoxy)pyridin-2(1H)-one Dihydrochloride]"
4,0.006,"O=c1cc(OCc2ccccc2)ccn1-c1ccc2c3c([nH]c2c1)CCN1CCCC31 (stereo not drawn) [Example 24, 4-(Benzyloxy)-1-(2,3,5,6,7,11c-hexahydro-1H-indolizino[7,8-b]indol-9-yl)pyridin-2(1H)-one Hydrochloride]"
5,0.014,"O=c1cc(OCc2ccc(F)cn2)ccn1-c1ccc2c3c([nH]c2c1)CCN1CCCC31 (stereo not drawn) [Example 25, 4-((5-Fluoropyridin-2-yl)methoxy)-1-(2,3,5,6,7,11c-hexahydro-1H-indolizino[7,8-b]indol-9-yl)pyridin-2(1H)-one Hydrochloride]"
6,0.022,"Cc1ccc(COc2ccn(-c3ccc4c5c(n(C)c4c3)CC3CCCN3C5)c(=O)c2)cn1 (stereo not drawn) [Example 31, 1-(10-Methyl-2,3,5,10,11,11a-hexahydro-1H-indolizino[7,6-b]indol-8-yl)-4-((6-methylpyridin-3-yl)methoxy)pyridin-2(1H)-one Hydrochloride]"

# — patent US8618299B2, “Azinone-substituted azapolycycle MCH-1 antagonists, methods of making, and use thereof” (Albany Molecular Research, Inc., priority 2009, dated 2013)
